From US7452913B2, “Polymorphs of pyrrole substituted 2-indolinone protein kinase inhibitors” (Pharmacia & Upjohn Company, priority 2003, dated 2008)
Values after ≈ are worked out from the molar mass of the structure shown. Like-named read-outs stand apart in the source and are kept apart here. Marks after values point to notes of the source that are not given here. Each block holds one molecule with its values, some of them ahead of it.

How the values were obtained:
Format in all cases: physicochemical
pKa = test: pKa
[1] = Estimation of the solubility of a polymorph in various solvents; conditions: thermodynamic from solid
Method: Estimation of the Solubility of a Polymorph in Various Solvents.
Approximately 1.5 mg of the polymorph, was transferred to 10 mL glass vials (tared) and was weighed (accurate to 0.1 mg). Solvents were added to the vials (one solvent each vial) in a step-wise fashion. After each addition, the vial was capped and shaken. The dissolution of solid was visually observed. If no obvious dissolution was observed, more solvent was added immediately. If dissolution was apparent, the vial was left on the bench for at least 30 minutes before the next addition of solvent. This step was repeated until no crystals were visible against a black and a white background. The solubility was then bracketed by dividing the weight by the final volume and the volume before the last addition. If a solid remained after the addition of 10 mL solvent, the solubility was expressed as less than the weight divided by the final volume. If the solid was completely dissolved after the first addition of solvent, the solubility was expressed as greater than the weight divided by the solvent volume. The solubility values were expressed as mg/mL. All experiments were conducted at room temperature.
The estimated solubilities of 5-[5-fluoro-2-oxo-1,2-dihydroindol-(3Z)-ylidenmethyl]-2,4-dimethyl-1H-pyrrole-3-carboxylic acid (2-pyrrolidin-1-ylethyl)-amide in various solvents are presented in Table A. The experiments were carried out using polymorph I at room temperature. The solubilities may be divided into three groups.

[2] = Equilibrium solution pH of non-buffered aqueous medium after adding the compound; conditions: for Equilibrium solution pH: non-buffered aqueous medium, ambient temperature
Method: Determination of the pH—Solubility Profile of Polymorphs.
About 3 mL aqueous solutions of various concentrations of either HCl or NaOH, providing a pH from 1-13, were transferred to a 10 ml glass vial. A sufficient amount of the polymorph was added. The vials were wrapped with aluminum foil and manually shaken. They were allowed to sit in the fume hood overnight prior to any further treatment.
As expected, the equilibrium solubility of this compound is higher at lower solution pH (Table A). However, the dissolution of a particle in a dissolution medium depends on the pH in the diffusion layer. The pH value of the diffusion layer in intimate contact with the solid (pHh=0) may be obtained from equilibrium pH of the solution, measured by a pH meter. Results are presented in Table B. When the initial pH is higher than 10, the solubility of 5-[5-fluoro-2-oxo-1,2-dihydroindol-(3Z)-ylidenmethyl]-2,4-dimethyl-1 H-pyrrole-3-carboxylic acid (2-pyrrolidin-1-ylethyl)-amide is very low. Therefore, the pH of the solution at equilibrium is almost not changed. On the other hand, if the initial pH<10, more 5-[5-fluoro-2-oxo-1,2-dihydroindol-(3Z)-ylidenmethyl]-2,4-dimethyl-1H-pyrrole-3-carboxylic acid (2-pyrrolidin-1-ylethyl)-amide goes into solution and the equilibrium solution pH is higher than the initial pH (Table B).

[3] = Rotating disc intrinsic dissolution rate (IDR) determination; conditions: for Color change of pellet side exposed to dissolution medium (solid-state conversion): 0.05M KCl, pH 2 buffer, original pellet yellow; for IDR (n = 3): pH = 2 buffer (0.01 N HCl and 0.05 M KCl) at 23° C.
Method: Rotating Disc Intrinsic Dissolution Rate (IDR) Determination. The IDR was measured using a fiber optic UV automated dissolution system. The dissolution process was monitored in some instances continuously at 426.2 nm using the fiber optic probe with 10 data points taken per minute. To prepare the compressed disc for the experiment, the powders were compressed in a stainless steel (SS) die, (1¼″ dia×1″, ID 3/16″) using a high speed steel (HSS) punch (diameter 3/16″ and length 3½″). The HSS punch was inserted into the die to a distance of about ¾″, leaving about ¼″ for placement of about 10 mg of the drug into the die cavity. A SS base plate (diameter ¼″) was placed to cover the cavity. The entire assembly was then secured by a 2-bolt holder. A Carver press was used to compress the powder at to ˜1,000 lbs (˜37,000 psi) for 3 minutes. The die and holder was removed from the Carver press and the punch was pulled back a little to allow the pellet to relax/expand. The die was then tightly attached on the HSS punch by a set-screw. The entire punch and die assembly containing the drug pellet with one face of the drug pellet exposed was removed as a unit from the holder and was attached to an electric motor. The die was rotated at 300 rpm and was lowered into the dissolution medium 3 min after the initiation of the data collection program. The dissolution medium was degassed and was contained in a 500 mL water jacketed beaker (Pyrex, No.1000). The data collect during the first 3 min provided a baseline value for each dissolution experiment. The dissolution medium consisted of pH=2 solution (0.01 N HCl and 0.05 M KCl). The die was positioned such that the drug compact was about 2.5″ from the bottom of the 500 mL dissolution vessel and about the same distance from the liquid surface. The intrinsic dissolution profile was plotted using Microsoft Excel and the intrinsic dissolution rate was calculated automatically by the program according to equation (1). The volume of dissolution medium was 300 mL. The surface area of the pellet exposed to dissolution medium was 0.177 cm^2. The time period for a dissolution run was usually 15 min but was varied as needed.

[4] = Slurry conversion (suspension crystallization), resulting solid identified by PXRD; conditions: room temperature; for Resulting solid by PXRD: stirred 2 weeks
Method: To determine the relative thermodynamic stability relationship between two polymorphs, a slurry conversion experiment was also studied at room temperature using PXRD.
Polymorph I, 20 mg, was suspended in various solvents alone with trace amount of polymorph II seeding crystals in 10 mL glass vials. The suspensions were stirred by magnetic stirring bars for 2 weeks before the solids were filtered and analyzed by PXRD. […] Because the solubility in THF is higher than that in acetone (Table A), low solubility is not the reason for the slow conversion kinetics.

[5] = Suspension of polymorphs in pH 2 dissolution medium (HCl salt formation test); conditions: for Color change of suspended particles: at least 15 minutes after suspension; for Appearance of suspension: one day after preparation
Description: To further test the HCl salt formation hypothesis. Both polymorph I and II were suspended in the above dissolution medium. […] It is also possible that compaction prior to the IDR experiment modify the crystals of polymorph I and render it the ability of rapid conversion. The XRD pattern of polymorph I pellets compressed at various pressures show some degree of amorphous content, which may be connected to its rapid salt formation during the IDR experiment.

pKa (pKa): 8.5 | solubility ([1]; DMF and pH<=2 water (one solvent per vial), organic solvent or mixture, DMSO, DMF and pH<=2 water, polymorph I, room temperature, read-out: Solubility (Group III solvents)): > 1000 µg/mL | solubility ([1]; dioxane and THF (one solvent per vial), organic solvent or mixture, methanol, ethanol, dioxane and THF, polymorph I, room temperature, read-out: Solubility (Group II solvents)): 100 to 400 µg/mL (≈ 252 to 1010 µM) | solubility ([1]; organic solvent or mixture, isopropyl alcohol, CH2Cl2, ethyl acetate, acetonitrile, acetone, chloroform, toluene, hexane and pH>6 water, polymorph I, room temperature, read-out: Solubility (Group I solvents)): < 300 µg/mL | pH of the diffusion layer in contact with the solid (pHh=0) ([2]; bulk dissolution medium pH as low as 1.4): > 5 | Solubility at initial pH higher than 10 ([2]; initial pH higher than 10, aqueous): very low | Equilibrium solution pH ([2]; initial solution pH 1.43): 5.36 | Equilibrium solution pH ([2]; initial solution pH 2.19): 5.20 | Equilibrium solution pH ([2]; initial solution pH 3.22): 6.98 | Equilibrium solution pH ([2]; initial solution pH 5.47): 8.13 | Equilibrium solution pH ([2]; initial solution pH 6.73): 8.31 | Equilibrium solution pH ([2]; initial solution pH 7.24): 8.49 | Equilibrium solution pH ([2]; initial solution pH 7.61): 8.87 | Equilibrium solution pH ([2]; initial solution pH 10.07): 9.86 | Equilibrium solution pH ([2]; initial solution pH 11.53): 11.61 | Equilibrium solution pH ([2]; initial solution pH 12.50): 12.52 | Equilibrium solution pH ([2]; initial solution pH 13.20): 13.18
Compound: Cc1[nH]c(/C=C2\C(=O)Nc3ccc(F)cc32)c(C)c1C(=O)NCCN1CCCC1 [5-[5-fluoro-2-oxo-1,2-dihydroindol-(3Z)-ylidenmethyl]-2,4-dimethyl-1H-pyrrole-3-carboxylic acid (2-pyrrolidin-1-ylethyl)-amide]

Color change of pellet side exposed to dissolution medium (solid-state conversion) [3]: orange-red | IDR (n = 3) [3]: 1.08 ± 0.09^c mg/min/cm^2 | Resulting solid by PXRD ([4]; Acetone suspension): converts to polymorph II | Resulting solid by PXRD ([4]; Methanol suspension): converts to polymorph II | Resulting solid by PXRD ([4]; THF suspension): appears stable | Color change of suspended particles [5]: no change of color | Appearance of suspension [5]: orange-red needle-shaped crystals | solubility ([1]; aqueous buffer, Water (pH = 2), 23° C., read-out: Solubility): 3110 µg/mL (≈ 7840 µM) | solubility ([1]; aqueous buffer, Water (pH = 6), 23° C., read-out: Solubility): 5 µg/mL (≈ 12.6 µM) | solubility ([1]; organic solvent or mixture, Acetone, 23° C., read-out: Solubility): < 160 µg/mL | solubility ([1]; organic solvent or mixture, Acetonitrile, 23° C., read-out: Solubility): < 80 µg/mL | solubility ([1]; organic solvent or mixture, CH2Cl2, 23° C., read-out: Solubility): < 120 µg/mL | solubility ([1]; organic solvent or mixture, Chloroform, 23° C., read-out: Solubility): < 110 µg/mL | solubility ([1]; organic solvent or mixture, DMF, 23° C., read-out: Solubility): > 1500 µg/mL | solubility ([1]; organic solvent or mixture, DMSO, 23° C., read-out: Solubility): 1500 to 3000 µg/mL (≈ 3780 to 7570 µM) | solubility ([1]; organic solvent or mixture, Dioxane, 23° C., read-out: Solubility): 180 to 200 µg/mL (≈ 454 to 504 µM) | solubility ([1]; organic solvent or mixture, Ethyl acetate, 23° C., read-out: Solubility): < 280 µg/mL | solubility ([1]; organic solvent or mixture, Hexane, 23° C., read-out: Solubility): < 130 µg/mL | solubility ([1]; organic solvent or mixture, Isopropanol, 23° C., read-out: Solubility): < 140 µg/mL | solubility ([1]; organic solvent or mixture, PEG 400, 23° C., read-out: Solubility): 300 to 430 µg/mL (≈ 757 to 1080 µM) | solubility ([1]; organic solvent or mixture, THF, 23° C., read-out: Solubility): 320 to 400 µg/mL (≈ 807 to 1010 µM) | solubility ([1]; organic solvent or mixture, Toluene, 23° C., read-out: Solubility): < 130 µg/mL | solubility ([1]; organic solvent or mixture, ethanol, 23° C., read-out: Solubility): 170 to 190 µg/mL (≈ 429 to 479 µM) | solubility ([1]; organic solvent or mixture, methanol, 23° C., read-out: Solubility): 210 to 310 µg/mL (≈ 530 to 782 µM)
Compound: Cc1[nH]c(/C=C2\C(=O)Nc3ccc(F)cc32)c(C)c1C(=O)NCCN1CCCC1 [polymorph I, 5-[5-fluoro-2-oxo-1,2-dihydroindol-(3Z)-ylidenmethyl]-2,4-dimethyl-1H-pyrrole-3-carboxylic acid (2-pyrrolidin-1-ylethyl)-amide]

Color change of pellet side exposed to dissolution medium (solid-state conversion) [3]: No obvious color change | IDR of polymorph II relative to apparent IDR of polymorph I ([3]; pH 2 buffer at 23° C.): about three times | IDR (n = 3) [3]: 3.54 ± 0.15 mg/min/cm^2 | Color change of suspended particles [5]: no change of color | Appearance of suspension [5]: orange-red needle-shaped crystals
Compound: Cc1[nH]c(/C=C2\C(=O)Nc3ccc(F)cc32)c(C)c1C(=O)NCCN1CCCC1 [polymorph II, 5-[5-fluoro-2-oxo-1,2-dihydroindol-(3Z)-ylidenmethyl]-2,4-dimethyl-1H-pyrrole-3-carboxylic acid (2-pyrrolidin-1-ylethyl)-amide]
Relative thermodynamic stability of the polymorphs [4]: thermodynamically more stable than polymorph I
